From US12115178B2, “Acylated active agents and methods of their use for the treatment of autoimmune disorders” (Flagship Pioneering Innovations V, Inc., priority 2018, dated 2024)

Tests used:
Format in all cases: in vitro ADME
[1] = Assay 1. Stability in Simulated Gastric Fluid (SGF)
Summary of the method: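 Compound at 1 μM final (from 1 mM DMSO stock) incubated at 37° C in SGF: NaCl medium at pH 1.6 with FaSSIF powder and 0.1 mg/mL pepsin, prepared fresh. Aliquots taken at T0 and regular intervals, quenched with equal volume acetonitrile; LC/MS gives degradation rate.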

[2] = Assay 2. Stability in Simulated Intestinal Fluid (SIF); conditions: SIF pH 6.7 with pancreatin, 1 μM, 37° C.
Summary of the method: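 Compounds at 1 µM (from 1 mM DMSO stock) were incubated at 37 °C with agitation in simulated intestinal fluid: FaSSIF in pH 6.7 phosphate buffer with pancreatin. Aliquots taken from T0 onward were quenched with acetonitrile and analyzed by LC/MS for degradation rate.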

[3] = Assay 3. In vitro Colonic Material Stability Assay; conditions: colonic material slurry, anaerobic, 1 or 10 μM
Description: Assay 3. In vitro Colonic Material Stability Assay. This assay was used to assess the stability of an acylated active agent in a large intestine. All experiments were performed in an anaerobic chamber containing 90% nitrogen, 5% hydrogen and 5% carbon dioxide. Colonic material was resuspended as a slurry (15% w/v final concentration) in pre-reduced, anaerobically sterilized dilution blanks (Anaerobe Systems AS-908). The colonic material was then inoculated into 96 well plates containing YCFAC media (Anaerobe Systems AS-680) or other suitable media (6.7 μL slurry into 1 mL total media). Compounds or groups of compounds were added to each individual well to reach a final analyte concentration of 1 or 10 μM, and the material was mixed by pipetting. Sample was removed after set timepoints (0, 120, 240, 480, 1440, 2880 minutes after initiation of the assay), quenched with acetonitrile containing internal standard, and analyzed by LC/MS.

[4] = SGF pH 1.6 with pepsin, 1 μM, 37° C.

CCCC(=O)O[C@H]1[C@@H](Oc2ccc(N)cc2C(=O)O)OC[C@@H](OC(=O)CCC)[C@H]1OC(=O)CCC [Compound 185, 5-amino-2-(((2R,3R,4R,5R)-3,4,5-tris(butyryloxy)tetrahydro-2H-pyran-2-yl)oxy)benzoic acid]
Assay 1 (SGF) (% Remaining @ 1 hour) [1, 4]: C (>75% of the tested compound remaining)
Assay 2 (SIF) (% @ Remaining 4 hours) [2]: B (25-75% of the tested compound remaining)
Assay 3 (% Remaining at 24 h) [3]: B (25-75% of the tested compound remaining)

CCCC(=O)O[C@@H]1[C@@H](OC(=O)CCC)[C@@H](Oc2ccc(N)cc2C(=O)O)OC[C@@H]1OC(=O)CCC [Compound 22, 5-amino-2-[(2R,3R,4S,5S)-3,4,5-tri(butanoyloxy)tetrahydropyran-2-yl]oxy-benzoic acid]
Assay 1 (SGF) (% Remaining @ 1 hour) [1, 4]: C (>75% of the tested compound remaining)
Assay 2 (SIF) (% @ Remaining 4 hours) [2]: B (25-75% of the tested compound remaining)
Assay 3 (% Remaining at 24 h) [3]: B (25-75% of the tested compound remaining)

CCC(=O)OC[C@H]1O[C@H](OC)[C@H](OC(=O)CC)[C@@H](OC(=O)CC)[C@H]1OC(=O)CC [Compound 57, [(2R,3S,4S,5R,6S)-6-methoxy-3,4,5-tris(propanoyloxy)oxan-2-yl]methyl propanoate]
Assay 1 (SGF) (% Remaining @ 1 hour) [1, 4]: C (>75% of the tested compound remaining)
Assay 2 (SIF) (% @ Remaining 4 hours) [2]: A (<25% of the tested compound remaining)
Assay 3 (% Remaining at 24 h) [3]: A (<25% of the tested compound remaining)

CCCC(=O)O[C@@H]1[C@@H](OC(=O)CCC)[C@H](C)O[C@@H](Oc2ccccc2C(=O)O)[C@@H]1OC(=O)CCC [Compound 40, 2-(((2S,3R,4R,5S,6S)-3,4,5-tris(butyryloxy)-6-methyltetrahydro-2H-pyran-2-yl)oxy)benzoic acid]
Assay 1 (SGF) (% Remaining @ 1 hour) [1, 4]: C (>75% of the tested compound remaining)
Assay 2 (SIF) (% @ Remaining 4 hours) [2]: C (>75% of the tested compound remaining)
Assay 3 (% Remaining at 24 h) [3]: C (>75% of the tested compound remaining)

CCC(=O)Oc1cc(C(=O)O)cc(OC(=O)CC)c1OC(=O)CC [Compound 201, 3,4,5-tris(propanoyloxy)benzoic acid]
Assay 1 (SGF) (% Remaining @ 1 hour) [1, 4]: C (>75% of the tested compound remaining)
Assay 2 (SIF) (% @ Remaining 4 hours) [2]: A (<25% of the tested compound remaining)
Assay 3 (% Remaining at 24 h) [3]: A (<25% of the tested compound remaining)

CCCC(=O)O[C@@H]1[C@@H](OC(=O)CCC)[C@@H](OC)OC[C@@H]1OC(=O)CCC [Compound 52, (2S,3R,4S,5S)-3,5-bis(butanoyloxy)-2-methoxyoxan-4-yl butanoate]
Assay 1 (SGF) (% Remaining @ 1 hour) [1, 4]: B (25-75% of the tested compound remaining)
Assay 2 (SIF) (% @ Remaining 4 hours) [2]: B (25-75% of the tested compound remaining)
Assay 3 (% Remaining at 24 h) [3]: B (25-75% of the tested compound remaining)

CCCC(=O)Oc1ccc(-c2oc3cc(OC(=O)CCC)cc(OC(=O)CCC)c3c(=O)c2OC(=O)CCC)cc1 [Compound 166, 4-[3,5,7-tris(butanoyloxy)-4-oxo-4H-chromen-2-yl]phenyl butanoate]
Assay 1 (SGF) (% Remaining @ 1 hour) [1, 4]: B (25-75% of the tested compound remaining)
Assay 2 (SIF) (% @ Remaining 4 hours) [2]: A (<25% of the tested compound remaining)
Assay 3 (% Remaining at 24 h) [3]: A (<25% of the tested compound remaining)

CCC(=O)O[C@@H]1[C@@H](OC(=O)CC)[C@H](OC)OC[C@H]1OC(=O)CC [Compound 73, (2R,3R,4S,5R)-2-methoxy-4,5-bis(propanoyloxy)oxan-3-yl propanoate]
Assay 1 (SGF) (% Remaining @ 1 hour) [1, 4]: C (>75% of the tested compound remaining)
Assay 2 (SIF) (% @ Remaining 4 hours) [2]: A (<25% of the tested compound remaining)
Assay 3 (% Remaining at 24 h) [3]: A (<25% of the tested compound remaining)

CCC(=O)Oc1cc(OC(=O)CC)c2c(c1)O[C@H](c1ccc(OC(=O)CC)c(OC(=O)CC)c1)[C@H](OC(=O)CC)C2 [Compound 194, (2R,3R)-2-[3,4-bis(propanoyloxy)phenyl]-5,7-bis(propanoyloxy)-3,4-dihydro-2H-1-benzopyran-3-yl propanoate]
Assay 1 (SGF) (% Remaining @ 1 hour) [1, 4]: B (25-75% of the tested compound remaining)
Assay 2 (SIF) (% @ Remaining 4 hours) [2]: A (<25% of the tested compound remaining)
Assay 3 (% Remaining at 24 h) [3]: A (<25% of the tested compound remaining)

CCC(=O)O[C@@H]1[C@@H](OC(=O)CC)[C@@H](OC)OC[C@@H]1OC(=O)CC [Compound 53, (2S,3R,4S,5S)-2-methoxy-3,5-bis(propanoyloxy)oxan-4-yl propanoate]
Assay 1 (SGF) (% Remaining @ 1 hour) [1, 4]: C (>75% of the tested compound remaining)
Assay 2 (SIF) (% @ Remaining 4 hours) [2]: B (25-75% of the tested compound remaining)
Assay 3 (% Remaining at 24 h) [3]: C (>75% of the tested compound remaining)

CCC(=O)O[C@H]1[C@H](OC(=O)/C=C/c2c[nH]c3ccccc23)OC[C@@H](OC(=O)CC)[C@H]1OC(=O)CC [Compound 92, (2S,3R,4R,5R)-3,4,5-tris(propanoyloxy)oxan-2-yl (2E)-3-(1H-indol-3-yl)prop-2-enoate]
Assay 1 (SGF) (% Remaining @ 1 hour) [1, 4]: C (>75% of the tested compound remaining)
Assay 2 (SIF) (% @ Remaining 4 hours) [2]: A (<25% of the tested compound remaining)
Assay 3 (% Remaining at 24 h) [3]: A (<25% of the tested compound remaining)

CCCC(=O)O[C@@H]1[C@@H](OC(=O)CCC)[C@@H](OC(=O)CCc2c[nH]c3ccccc23)OC[C@H]1OC(=O)CCC [Compound 96, (2R,3R,4S,5R)-4,5-bis(butanoyloxy)-2-{[3-(1H-indol-3-yl)propanoyl]oxy}oxan-3-yl butanoate]
Assay 1 (SGF) (% Remaining @ 1 hour) [1, 4]: C (>75% of the tested compound remaining)
Assay 2 (SIF) (% @ Remaining 4 hours) [2]: A (<25% of the tested compound remaining)
Assay 3 (% Remaining at 24 h) [3]: A (<25% of the tested compound remaining)

O=C(CCc1c[nH]c2ccccc12)O[C@@H]1O[C@H](C(=O)O)[C@@H](OC(=O)CCc2c[nH]c3ccccc23)[C@H](OC(=O)CCc2c[nH]c3ccccc23)[C@H]1OC(=O)CCc1c[nH]c2ccccc12 [Compound 49, (2S,3S,4S,5R,6S)-3,4,5,6-tetrakis({[3-(1H-indol-3-yl)propanoyl]oxy})oxane-2-carboxylic acid]
Assay 1 (SGF) (% Remaining @ 1 hour) ([1]; Run 1, SGF): B (25-75% of the tested compound remaining)
Assay 1 (SGF) (% Remaining @ 1 hour) ([1]; Run 2, SGF): C (>75% of the tested compound remaining)
Assay 2 (SIF) (% @ Remaining 4 hours) [2]: A (<25% of the tested compound remaining)
Assay 3 (% Remaining at 24 h) [3]: A (<25% of the tested compound remaining)

CC(=O)O[C@H]1O[C@H](C(=O)O)[C@@H](OC(C)=O)[C@H](OC(C)=O)[C@H]1OC(C)=O [Compound 163, (2S,3S,4S,5R,6R)-3,4,5,6-tetraacetoxytetrahydro-2H-pyran-2-carboxylic acid]
Assay 1 (SGF) (% Remaining @ 1 hour) [1, 4]: C (>75% of the tested compound remaining)
Assay 2 (SIF) (% @ Remaining 4 hours) [2]: C (>75% of the tested compound remaining)
Assay 3 (% Remaining at 24 h) [3]: B (25-75% of the tested compound remaining)

CCC(=O)O[C@@H]1O[C@@H](C)[C@H](OC(=O)CC)[C@@H](OC(=O)CC)[C@H]1OC(=O)CC [Compound 78, (2S,3R,4R,5S,6S)-6-methyl-3,4,5-tris(propanoyloxy)oxan-2-yl propanoate]
Assay 1 (SGF) (% Remaining @ 1 hour) [1, 4]: B (25-75% of the tested compound remaining)
Assay 2 (SIF) (% @ Remaining 4 hours) [2]: A (<25% of the tested compound remaining)
Assay 3 (% Remaining at 24 h) [3]: A (<25% of the tested compound remaining)

CCC(=O)OC[C@H]1O[C@H](OC)[C@H](OC(=O)CC)[C@@H](OC(=O)CC)[C@@H]1OC(=O)CC [Compound 55, [(2R,3R,4S,5R,6S)-6-methoxy-3,4,5-tris(propanoyloxy)oxan-2-yl]methyl propanoate]
Assay 1 (SGF) (% Remaining @ 1 hour) [1, 4]: C (>75% of the tested compound remaining)
Assay 2 (SIF) (% @ Remaining 4 hours) [2]: A (<25% of the tested compound remaining)
Assay 3 (% Remaining at 24 h) [3]: A (<25% of the tested compound remaining)

CCCC(=O)Oc1cc(OC(=O)CCC)c2c(c1)O[C@H](c1ccc(OC(=O)CCC)c(OC(=O)CCC)c1)[C@H](OC(=O)CCC)C2 [Compound 193, (2R,3R)-2-[3,4-bis(butanoyloxy)phenyl]-5,7-bis(butanoyloxy)-3,4-dihydro-2H-1-benzopyran-3-yl butanoate]
Assay 1 (SGF) (% Remaining @ 1 hour) [1, 4]: C (>75% of the tested compound remaining)
Assay 2 (SIF) (% @ Remaining 4 hours) [2]: A (<25% of the tested compound remaining)
Assay 3 (% Remaining at 24 h) [3]: A (<25% of the tested compound remaining)

CCC(=O)O[C@H]1[C@H](OC(=O)Cc2c[nH]c3ccccc23)OC[C@@H](OC(=O)CC)[C@H]1OC(=O)CC [Compound 106, (2S,3R,4R,5R)-2-{[2-(1H-indol-3-yl)acetyl]oxy}-4,5-bis(propanoyloxy)oxan-3-yl propanoate]
Assay 1 (SGF) (% Remaining @ 1 hour) [1, 4]: C (>75% of the tested compound remaining)
Assay 2 (SIF) (% @ Remaining 4 hours) [2]: A (<25% of the tested compound remaining)
Assay 3 (% Remaining at 24 h) [3]: A (<25% of the tested compound remaining)

CCC(=O)Oc1ccc(-c2oc3cc(OC(=O)CC)cc(OC(=O)CC)c3c(=O)c2OC(=O)CC)cc1 [Compound 167, 4-[4-oxo-3,5,7-tris(propanoyloxy)-4H-chromen-2-yl]phenyl propanoate]
Assay 1 (SGF) (% Remaining @ 1 hour) [1, 4]: B (25-75% of the tested compound remaining)
Assay 2 (SIF) (% @ Remaining 4 hours) [2]: A (<25% of the tested compound remaining)
Assay 3 (% Remaining at 24 h) [3]: A (<25% of the tested compound remaining)
